The values that follow come from ChEMBL document CHEMBL2046431 (Bioorg Med Chem, 2012).

Each structure is given as a SMILES string.

The data set can be described thus: Permeability across human Caco2 cells. In kind it is ADME, cell-based. Particulars: Caco-2, read-out: permeability. (In general: Caco-2 cells form a polarised layer with tight junctions and transporters.)
Consider `CN(c1cc2cc(c1)C(=O)N[C@H]([C@H](O)CNCc1ccccc1)COC/C=C/CCNC2=O)S(C)(=O)=O`, for which the Papp was at most 1 ×10⁻⁶ cm/s.
Under `CC(C)c1cccc(CNC[C@@H](O)[C@@H]2COCCCCCNC(=O)c3cc(cc(N(C)S(C)(=O)=O)c3)C(=O)N2)c1` stands at most 1 ×10⁻⁶ cm/s; under `CC(C)c1cccc(CNC[C@@H](O)[C@@H]2COC/C=C\CCN(C)C(=O)c3cc(cc(N(C)S(C)(=O)=O)c3)C(=O)N2)c1`, at most 1 ×10⁻⁶ cm/s; under `CC(C)c1cccc(CNC[C@@H](O)[C@@H]2COC/C=C/CCNC(=O)c3cc(cc(N(C)S(C)(=O)=O)c3)C(=O)N2)c1`, at most 1 ×10⁻⁶ cm/s.
For the molecule `CN(c1cc2cc(c1)C(=O)N[C@H]([C@H](O)CNCc1cccc(C(C)(C)C)c1)COC/C=C/CCNC2=O)S(C)(=O)=O`, the Papp was at most 1 ×10⁻⁶ cm/s.
As to `Cc1cc2cc(c1)C(=O)N[C@H]([C@H](O)CNCc1cccc(C(C)C)c1)COC/C=C/C[C@@H](c1ccccc1)NC2=O`, the Papp is at most 1 ×10⁻⁶ cm/s.
In the case of `Cc1cc2cc(c1)C(=O)N[C@H]([C@H](O)CNCc1ccccc1)COC/C=C/CCNC2=O` it was at most 1 ×10⁻⁶ cm/s; in that of `Cc1cc2cc(c1)C(=O)N[C@H]([C@H](O)CNCc1cccc(C(C)C)c1)COC/C=C/CCNC2=O`, at most 1 ×10⁻⁶ cm/s.
Under `CC(C)c1cccc(CNC[C@@H](O)[C@@H]2COC/C=C/CCCNC(=O)c3cc(cc(N(C)S(C)(=O)=O)c3)C(=O)N2)c1` stands at most 1 ×10⁻⁶ cm/s; under `CN(c1cc2cc(c1)C(=O)N[C@H]([C@H](O)CNCc1ccccc1)COCCCCCNC2=O)S(C)(=O)=O`, at most 1 ×10⁻⁶ cm/s.
For the molecule `Cc1cc2cc(c1)C(=O)N[C@@H](c1ccccc1)C/C=C/COC[C@@H]([C@H](O)CNCc1cccc(C(C)C)c1)NC2=O`, the Papp is at most 1 ×10⁻⁶ cm/s.
Regarding `CC(C)c1cccc(CNC[C@@H](O)[C@@H]2COC/C=C/C[C@H](c3ccccc3)NC(=O)c3cc(cc(N(C)S(C)(=O)=O)c3)C(=O)N2)c1`, the Papp was at most 1 ×10⁻⁶ cm/s.
Under `CC(C)c1cccc(CNC[C@@H](O)[C@@H]2COCCCCCCNC(=O)c3cc(cc(N(C)S(C)(=O)=O)c3)C(=O)N2)c1` stands at most 1 ×10⁻⁶ cm/s; under `CC(C)c1cccc(CNC[C@@H](O)[C@@H]2COC/C=C/C[C@@H](c3ccccc3)NC(=O)c3cc(cc(N(C)S(C)(=O)=O)c3)C(=O)N2)c1`, at most 1 ×10⁻⁶ cm/s.
